≈ marks a conversion by molar mass, not a printed value. Like-named read-outs stand apart in the source and are kept apart here.
Legend:
[1] = tested on: Candida Albicans strain B311A; assay: MIC assay (Example 1B); assay type: cell-based; conditions: for MIC: Candida albicans
Protocol: The fractions from the purification were tested for antifungal activity against C. albicans (strain B311A available from Dr. Paul Actor, Temple University and strains ATCC Nos. 10231 and 10261) and C. tropicalis (strain 13803). […] Prior to the assay for antifungal activity, the fungus to be tested for susceptibility was grown overnight from a single colony in 5 ml of medium at 30° C. This overnight culture was diluted 1:10 with fresh medium and grown at 37° C. for 4 hours. A volume of 5 μl of extracts, dissolved in DMSO, was added to each separate well in a series of 96-well plates. 4,000 fungal cells were then added to each plate in 95 μl of medium. The optical densities of the wells were measured and the plates incubated at 37° C. The optical densities were again measured after 24 and 48 hours. Minimum inhibitory concentrations ("MICs") for the extracts were determined using this procedure wherein the extracts were serially diluted in medium prior to mixing with the 4,000 fungal cells.

Fungal cells = assay: Disk diffusion assay for antimicrobial activity (Example 2), zone of growth inhibition; assay type: cell-based; conditions: for zone of inhibition at 100 µg/disc: 100 μg per 6 mm disk, read-out: zone of growth inhibition, diameter; for zone of inhibition at 100 µg/disc / zone of growth inhibition, diameter: 37° C., 24 hours
Protocol: (§1) Fungal cells were grown overnight from a single colony in 2-5 ml Sabouraud Dextrose Broth at 37° C. 1-5×10^6 were spread onto Sabouraud Dextrose Agar plates (Difco, Detroit, Mich.). Sterile 6 mm filter disks were evenly spaced with at least about 22 mm separation on the plates. To each disk, 100 μg of a compound to be tested was applied in 5-10 μl DMSO. On each plate, two disks containing 2.5 and 10 μg, respectively, of Amphotericin B (Sigma) and two disks containing 2.5 and 10 μg, respectively, of cerulenin (Sigma) were used as positive controls. A disk containing only DMSO served as the negative control. The plates were incubated at 37° C. for 24 hours and the zone of growth inhibition about each disk was visually examined and measured. Compound A and compound B typically produced clear zones of 8-12 mm diameter. Amphotericin B typically produced a clear zone of 8-10 mm diameter. Cerulenin typically produced a hazy zone of 20-25 mm diameter. A clear zone is indicative of fungicidal activity, while a hazy zone is indicative of fungistatic activity.

[2] = tested on: C. albicans strain ATCC 10231; assay: Murine systemic model of candidiasis; assay type: in vivo, mice; conditions: for % Survival: 10 mg/kg IP one hour after inoculation, after nine days
Protocol: (§2) In vivo activity was determined using a murine systemic model of candidiasis. Groups of 5 to 10 mice were inoculated IV with 1-2×10^7 cells of C. albicans strain ATCC 10231 (10 times the lethal dose). One hour after inoculation, the candidate antifungal compounds were delivered IP. 10 mg/kg of compound A was injected into each mouse of the compound A treatment group. Two separate treatment groups received 30 and 100 mg/kg, respectively, of compound B. Amphotericin B was injected into a positive control treatment group at 10 mg/kg. All compounds were delivered in phosphate-buffered saline (PBS) and one treatment group received PBS. Twice daily thereafter the mice were observed, the number of dead mice recorded, and the dead mice removed. After nine days, the total mortality over the period was determined.

[3] = target: T1, FAS of C. Albicans strain 4918 (Candida albicans, UniProt P34731+P43098); assay: FAS activity in extracts of treated C. Albicans cultures (Example 10); assay type: cell-based; conditions: read-out: Percent Remaining FAS Activity
T1 construct: endogenous in cells; host or cells: Candida albicans strain 4918 (from Dr. Ronald Cihlar, Georgetown University Medical Center)
Protocol: C. Albicans strain 4918 (available from Dr. Ronald Cihlar, Georgetown University Medical Center, Washington, D.C.) was grown in minimal medium (M63 media available from Difco, Detroit, Mich.) at 37° C. to mid-log phase. 10 μg/ml cerulenin and 25 μg/ml of compound B were added to separate cultures. At 15 minute intervals, 20 ml samples were removed and extracts prepared by mechanical extraction as in Example 1C, except that the ammonium sulfate precipitation step was not applied. The extract was diluted to 1 ml to form a solution containing 0.4M potassium phosphate, pH 7.3, 0.125 μM dithiothreitol, 50 μM acetyl-CoA, 100 μM NADPH. After incubation at 37° C. for 5 minutes, 100 μM malonyl-CoA containing 0.5 μCi [2-^14 C]-malonyl-CoA (Amersham, Arlington Heights, Ill.). After 10 minutes at 37° C., the fatty acid synthesis reaction was terminated by adding 30 μl of 60% perchloric acid (v/v) and 1 ml ethanol. Four volumes of pet. ether were added to each reaction incubation to extract the fatty acids. The relative incorporation of malonyl-CoA into fatty acids was determined by liquid scintillation counting.

FAS from S. cereviseae = target: T2, FAS from S. cereviseae (Saccharomyces cerevisiae, UniProt P07149+P19097); assay: FAS inhibition assay (Example 1C); assay type: biochemical
T2 construct: an FAS extract from Saccharomyces cerviseae was prepared; (the yeast itself); host or cells: Fleishmans' freeze dried yeast (Saccharomyces cerevisiae); dialyzed ammonium sulfate precipitate of the lysate
Protocol: To test the compounds for FAS inhibitory activity, an FAS extract from Saccharomyces cerviseae was prepared. Freeze dried yeast (Fleishmans' freeze dried yeast, Specialty Brands, San Francisco, Calif.) 1 g, was hydrated in 5 mls deionized water for 15 minutes at 4° C. Subsequent extraction steps were conducted at a temperature between 4° C. and 10° C., except that in the cell lysis step the temperature may have briefly exceeded these boundaries. The cells were pelleted by centrifugation; the pelleted volume was measured; and the cells were resuspended in 5 vol. (5 mls per ml cell volume) extraction buffer [125 mM KH2PO4, pH 6.6, 1 mM EDTA, 1 mM DTT, 0.7 μg/ml pepstatin (Boehringer Mannheim, Indianapolis, Ind.), 0.2 μg/ml aprotinin (Boehringer Mannheim, Indianapolis, Ind.), 0.2 μg/ml leupeptin (Boehringer Mannheim, Indianapolis, Ind.)]. The cells were again pelleted and resuspended in 2 vol. extraction buffer. The cells were lysed using a bead mill homogenizer (Biospec Products, Bartlesville, OD) with a volume of glass beads equal to the volume of the yeast cells. The bead mill was operated five times for 1 minute, with 1 minute intervals between operations to allow the water jacket of the bead mill to cool the material in the mill. The lysate was centrifuged at 30,000×g for 30 minutes and the supernate was collected. Ammonium sulfate was added to the supernate to 50% saturation and the mixture was stirred for 30 minutes on ice. […]
105 μl of FAS extract was placed in each well of a polypropylene 96 well plate (Costar Corp. Cambridge, Mass.) and multiple 5 μl dilutions of compound A, compound B or negative control solution were introduced into each of the wells. […] The relative initial reaction rates in each well were measured by measuring the decrease in optical density at 340 nm using a UV Max microtiter plate reader (Molecular Devices, Sunnyvalle, Calif.).

[4] = tested on: Candida albicans (strains ATCC 10231 and ATCC 10261); assay: Disk diffusion assay for antimicrobial activity (Example 2); assay type: cell-based
Protocol: as §1

[5] = tested on: Candida tropicalis (strain ATCC 13803); assay: as above; assay type: cell-based
Protocol: as §1

[6] = Maximal tolerated dose in mice, IP administration; conditions: mouse, in vivo, read-out: maximal tolerated dose (maximum dose that caused no deaths within 72 hours)
Protocol: as §2
Using the same methodology, it was determined that the maximal tolerated dose in these mice (i.e., the maximum dose that caused no deaths within 72 hours following IP administration) of compound B was in excess of 200 mg/kg. The mice treated with 2108B or Amphotericin B injected IP in […] of phosphate buffered saline, pH 7.4 had the following treatment profiles: […]

[7] = positive control disks with 2.5 and 10 μg

T2 sequence (P19097 whole entry): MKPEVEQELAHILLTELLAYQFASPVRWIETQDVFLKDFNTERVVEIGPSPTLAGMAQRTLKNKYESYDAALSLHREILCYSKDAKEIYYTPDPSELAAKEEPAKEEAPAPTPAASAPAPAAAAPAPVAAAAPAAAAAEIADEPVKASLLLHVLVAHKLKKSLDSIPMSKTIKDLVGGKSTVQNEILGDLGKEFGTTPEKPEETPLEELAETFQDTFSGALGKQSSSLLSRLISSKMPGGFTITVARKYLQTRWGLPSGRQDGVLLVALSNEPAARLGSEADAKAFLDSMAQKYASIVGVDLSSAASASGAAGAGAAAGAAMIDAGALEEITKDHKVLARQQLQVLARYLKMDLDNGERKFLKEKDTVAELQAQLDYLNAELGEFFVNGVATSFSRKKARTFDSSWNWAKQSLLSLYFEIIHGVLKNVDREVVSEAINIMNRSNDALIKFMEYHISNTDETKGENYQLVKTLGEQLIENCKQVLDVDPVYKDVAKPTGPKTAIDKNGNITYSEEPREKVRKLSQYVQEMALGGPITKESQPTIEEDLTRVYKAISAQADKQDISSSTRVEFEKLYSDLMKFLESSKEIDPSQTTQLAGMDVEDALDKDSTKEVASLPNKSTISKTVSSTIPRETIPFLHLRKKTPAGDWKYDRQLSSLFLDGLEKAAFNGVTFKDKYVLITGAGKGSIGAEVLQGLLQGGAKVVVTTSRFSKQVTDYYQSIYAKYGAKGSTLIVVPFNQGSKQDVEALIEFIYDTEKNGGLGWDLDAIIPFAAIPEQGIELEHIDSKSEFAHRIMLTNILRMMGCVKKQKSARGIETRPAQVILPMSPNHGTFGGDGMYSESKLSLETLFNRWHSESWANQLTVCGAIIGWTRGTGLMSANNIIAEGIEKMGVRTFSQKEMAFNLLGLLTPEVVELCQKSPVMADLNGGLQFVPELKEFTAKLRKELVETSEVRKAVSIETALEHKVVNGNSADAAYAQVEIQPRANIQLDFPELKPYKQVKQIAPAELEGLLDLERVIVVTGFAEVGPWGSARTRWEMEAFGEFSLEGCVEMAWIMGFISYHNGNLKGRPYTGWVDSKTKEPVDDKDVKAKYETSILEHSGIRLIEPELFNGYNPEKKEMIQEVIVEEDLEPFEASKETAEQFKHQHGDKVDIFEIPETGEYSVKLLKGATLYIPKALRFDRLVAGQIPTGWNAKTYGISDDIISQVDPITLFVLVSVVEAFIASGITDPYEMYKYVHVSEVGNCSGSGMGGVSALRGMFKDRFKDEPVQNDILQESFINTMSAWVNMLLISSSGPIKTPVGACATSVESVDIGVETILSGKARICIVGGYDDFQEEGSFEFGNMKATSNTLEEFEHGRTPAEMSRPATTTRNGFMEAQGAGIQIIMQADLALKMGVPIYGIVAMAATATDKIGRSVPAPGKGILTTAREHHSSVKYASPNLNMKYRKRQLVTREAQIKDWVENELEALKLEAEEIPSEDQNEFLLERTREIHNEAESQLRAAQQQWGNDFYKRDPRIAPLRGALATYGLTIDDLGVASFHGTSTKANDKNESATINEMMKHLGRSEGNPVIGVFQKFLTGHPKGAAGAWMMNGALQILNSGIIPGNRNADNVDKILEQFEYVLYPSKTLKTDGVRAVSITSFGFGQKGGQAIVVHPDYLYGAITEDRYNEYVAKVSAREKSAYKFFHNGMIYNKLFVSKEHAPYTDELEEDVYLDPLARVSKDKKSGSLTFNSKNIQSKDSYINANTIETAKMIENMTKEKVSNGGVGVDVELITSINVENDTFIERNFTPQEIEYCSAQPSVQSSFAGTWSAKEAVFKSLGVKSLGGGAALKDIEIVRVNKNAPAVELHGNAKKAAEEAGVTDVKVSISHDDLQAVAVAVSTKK
T2 sequence (P07149 whole entry): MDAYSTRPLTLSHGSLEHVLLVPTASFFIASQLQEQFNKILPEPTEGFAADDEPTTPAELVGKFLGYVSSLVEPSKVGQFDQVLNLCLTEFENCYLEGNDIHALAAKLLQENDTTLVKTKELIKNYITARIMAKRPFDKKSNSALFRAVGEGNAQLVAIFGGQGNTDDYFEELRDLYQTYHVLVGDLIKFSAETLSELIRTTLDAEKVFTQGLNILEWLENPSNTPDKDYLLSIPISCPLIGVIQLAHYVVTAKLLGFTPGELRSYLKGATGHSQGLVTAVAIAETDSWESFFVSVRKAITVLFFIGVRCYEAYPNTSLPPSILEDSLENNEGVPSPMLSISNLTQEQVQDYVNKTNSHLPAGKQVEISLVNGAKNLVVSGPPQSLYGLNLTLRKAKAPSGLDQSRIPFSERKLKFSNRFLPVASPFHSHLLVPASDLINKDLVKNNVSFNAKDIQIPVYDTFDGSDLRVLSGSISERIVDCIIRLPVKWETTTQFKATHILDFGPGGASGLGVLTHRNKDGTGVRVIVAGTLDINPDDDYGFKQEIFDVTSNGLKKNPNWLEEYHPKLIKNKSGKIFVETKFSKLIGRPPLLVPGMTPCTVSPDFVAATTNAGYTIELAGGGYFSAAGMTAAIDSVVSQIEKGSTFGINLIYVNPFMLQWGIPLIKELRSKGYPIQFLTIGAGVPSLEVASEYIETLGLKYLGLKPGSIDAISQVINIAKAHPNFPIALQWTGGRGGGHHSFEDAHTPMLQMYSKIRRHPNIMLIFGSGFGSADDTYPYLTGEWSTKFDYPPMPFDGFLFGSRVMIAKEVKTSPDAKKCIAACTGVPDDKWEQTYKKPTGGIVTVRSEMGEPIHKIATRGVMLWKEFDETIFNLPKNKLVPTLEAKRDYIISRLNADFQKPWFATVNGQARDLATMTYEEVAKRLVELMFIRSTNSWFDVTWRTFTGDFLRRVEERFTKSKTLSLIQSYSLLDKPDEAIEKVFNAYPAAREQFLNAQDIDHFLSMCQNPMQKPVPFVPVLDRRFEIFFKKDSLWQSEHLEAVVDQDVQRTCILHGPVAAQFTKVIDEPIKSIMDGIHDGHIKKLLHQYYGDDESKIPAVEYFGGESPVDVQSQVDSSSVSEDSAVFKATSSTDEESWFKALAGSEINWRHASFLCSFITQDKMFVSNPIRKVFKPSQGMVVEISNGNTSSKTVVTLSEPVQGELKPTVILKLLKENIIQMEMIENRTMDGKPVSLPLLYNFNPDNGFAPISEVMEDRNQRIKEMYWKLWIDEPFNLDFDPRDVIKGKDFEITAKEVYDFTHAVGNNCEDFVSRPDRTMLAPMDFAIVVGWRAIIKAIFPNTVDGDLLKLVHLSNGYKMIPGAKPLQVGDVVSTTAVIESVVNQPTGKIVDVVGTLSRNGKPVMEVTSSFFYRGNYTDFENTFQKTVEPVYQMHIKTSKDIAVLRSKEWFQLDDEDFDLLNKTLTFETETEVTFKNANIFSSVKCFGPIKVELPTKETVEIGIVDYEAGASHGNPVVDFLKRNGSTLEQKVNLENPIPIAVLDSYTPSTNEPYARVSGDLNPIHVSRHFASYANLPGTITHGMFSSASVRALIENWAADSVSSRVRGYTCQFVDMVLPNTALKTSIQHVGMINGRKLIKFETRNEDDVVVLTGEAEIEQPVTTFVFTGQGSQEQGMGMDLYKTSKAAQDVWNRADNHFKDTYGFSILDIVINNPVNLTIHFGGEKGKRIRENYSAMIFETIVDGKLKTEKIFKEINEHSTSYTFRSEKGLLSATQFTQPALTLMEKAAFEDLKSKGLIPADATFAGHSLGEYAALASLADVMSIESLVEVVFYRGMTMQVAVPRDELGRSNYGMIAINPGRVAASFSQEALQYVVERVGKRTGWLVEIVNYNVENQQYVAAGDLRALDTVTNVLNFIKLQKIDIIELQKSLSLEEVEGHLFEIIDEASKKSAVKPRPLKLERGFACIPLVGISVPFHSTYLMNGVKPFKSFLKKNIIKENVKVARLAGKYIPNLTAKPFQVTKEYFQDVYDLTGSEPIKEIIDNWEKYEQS

## C/C=C/C=C/C=C/C1=CC2=CC(=O)C(C)(OC(=O)CC(O)CC(C)O)C(=O)C23OC3O1 (centres unmarked) [patulodin, reference compound]
[1]; YNB medium
  MIC: > 100 µg/mL
Fungal cells
  zone of inhibition at 100 µg/disc: 7 mm

## C[C@@H]1[C@H](O)[C@@H](C)/C=C/C=C/C=C/C=C/C=C/C=C/C=C/[C@H](O[C@@H]2O[C@H](C)[C@@H](O)[C@H](N)[C@@H]2O)C[C@@H]2O[C@](O)(C[C@@H](O)C[C@@H](O)[C@H](O)CC[C@@H](O)C[C@@H](O)CC(=O)O[C@H]1C)C[C@H](O)[C@H]2C(=O)O [Amphotericin B, reference compound]
Fungal cells; [7]
  zone appearance (clear = fungicidal, hazy = fungistatic): clear zone
  zone of growth inhibition, diameter: 8-10 mm
[2]; 10 mg/kg IP
  Deaths Each Day Post Inoculation, day 0: 0
  Deaths Each Day Post Inoculation, day 1: 0
  Deaths Each Day Post Inoculation, day 3: 0
  Deaths Each Day Post Inoculation, day 5: 0
  Deaths Each Day Post Inoculation, day 6: 0
  Deaths Each Day Post Inoculation, day 7: 0
  Deaths Each Day Post Inoculation, day 8: 0
  Deaths Each Day Post Inoculation, day 9: 0
[2]
  % Survival: 80%

## C/C=C/C/C=C/CCC(=O)[C@H]1O[C@H]1C(N)=O [Cerulenin, cerulenin, reference compound]
Fungal cells; [7]
  zone appearance (clear = fungicidal, hazy = fungistatic): hazy zone
  zone of growth inhibition, diameter: 20-25 mm
[3]; 0.25 h
  remaining activity at 10 µg/mL: 20%
[3]; 0.5 h
  remaining activity at 10 µg/mL: 12%

## C/C=C/C=C/C=C/C1=CC2=CC(=O)C(C)(OC(=O)CC(C)O)C(=O)C23OC3O1 (centres unmarked) [Compound A]
[1]; Sabouraud Dextrose Broth substituted for YNB medium
  MIC: 50 µg/mL (≈ 129 µM)
[1]; YNB medium
  MIC: 25 µg/mL (≈ 64.7 µM)
[1]; HPLC-purified material, strain not stated
  activity in the MIC assay of Example 1B (in words): retained activity
FAS from S. cereviseae
  FAS inhibition in the in vitro enzyme inhibition assay (in words): retained activity
  IC50: 414 µM
Fungal cells
  zone of inhibition at 100 µg/disc: 8 to 12 mm
Fungal cells; 100 μg per disk
  zone appearance (clear = fungicidal, hazy = fungistatic): clear zones
[4]
  antimicrobial activity (in words): had antimicrobial activity
[5]
  antimicrobial activity (in words): had antimicrobial activity
[6]
  MTD at 72 h: 10 mg/kg
[2]; 10 mg/kg IP
  Deaths Each Day Post Inoculation, day 0: 0
  Deaths Each Day Post Inoculation, day 1: 0
  Deaths Each Day Post Inoculation, day 2: 2
  Deaths Each Day Post Inoculation, day 3: 3
  Deaths Each Day Post Inoculation, day 4: 0
  Deaths Each Day Post Inoculation, day 5: 0
  Deaths Each Day Post Inoculation, day 6: 0
  Deaths Each Day Post Inoculation, day 7: 0
  Deaths Each Day Post Inoculation, day 8: 0
  Deaths Each Day Post Inoculation, day 9: 0
[2]
  % Survival: 0%
